Reference: the supplement of paper PMC10307832

How the values were obtained:
Assay in all cases: relative viability (nuclei count vs DMSO), 5 days (fraction); higher = more cells survive
[1] = compound: CC[C@@H](C)CNCC(=O)N1CCC2=C([C@@H]1COC3=CC=CC(=C3)C)C=CS2 [RU-SKI 43] + CC(=O)c1c(C)c2cnc(Nc3ccc(N4CCNCC4)cn3)nc2n(C2CCCC2)c1=O [Palbociclib] (partner 0.5 µM)
Procedure, shortened: (§1)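 Medians of duplicate plates are given as relative viability. That measure is the nuclei count in treated wells divided by the count in vehicle wells. Counts were taken on 4× images of lung cancer cell lines in 1536-well plates, 5 days after pin-tool dosing the day after seeding with one drug alone or a fixed anchor-drug dose plus five library-drug doses (not always all listed) in √10 steps.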

[2] = compound: CC[C@@H](C)CNCC(=O)N1CCC2=C([C@@H]1COC3=CC=CC(=C3)C)C=CS2 [RU-SKI 43] + N=C(N)NC(=N)NCCc1ccccc1 [Phenformin] (partner 250 µM)
Procedure, shortened: as §1

[3] = compound: CCc1c2c(nc3ccc(OC(=O)N4CCC(N5CCCCC5)CC4)cc13)-c1cc3c(c(=O)n1C2)COC(=O)[C@]3(O)CC [Irinotecan] + C[C@@H](Oc1cc(-c2cnn(C3CCNCC3)c2)cnc1N)c1c(Cl)ccc(F)c1Cl [Crizotinib] (partner 1 µM)
Procedure, shortened: as §1

[4] = compound: Cn1cc(-c2cnc3ccc4ccc(CS(=O)(=O)NCc5ccccn5)cc4c(=O)c3c2)cn1 [MK-8033] + CC(C)C[C@H](NC(=O)[C@H](Cc1ccccc1)NC(=O)c1cnccn1)B(O)O [Bortezomib] (partner 0.002 µM)
Procedure, shortened: as §1

| Cell Line | relative viability ([1]; first compound 0.1 µM) | relative viability ([1]; first compound 0.3162 µM) | relative viability ([1]; first compound 1 µM) | relative viability ([1]; first compound 3.162 µM) | relative viability ([1]; first compound 10 µM) | relative viability ([2]; first compound 0.1 µM) | relative viability ([2]; first compound 0.3162 µM) | relative viability ([2]; first compound 1 µM) | relative viability ([2]; first compound 3.162 µM) | relative viability ([2]; first compound 10 µM) | relative viability ([3]; first compound 0.6325 µM) | relative viability ([3]; first compound 2 µM) | relative viability ([3]; first compound 6.325 µM) | relative viability ([3]; first compound 20 µM) | relative viability ([4]; first compound 0.02 µM) | relative viability ([4]; first compound 0.06325 µM) | relative viability ([4]; first compound 0.2 µM) | relative viability ([4]; first compound 0.6325 µM) | relative viability ([4]; first compound 2 µM) |
| --- | --- | --- | --- | --- | --- | --- | --- | --- | --- | --- | --- | --- | --- | --- | --- | --- | --- | --- | --- |
| NCI-H1975 | 0.642 | 0.626 | 0.669 | 0.541 | 0.352 | 0.385 | 0.468 | 0.444 | 0.422 | 0.404 | 0.914 | 1 | 0.401 | 0.329 | 0.386 | 0.328 | 0.365 | 0.429 | 0.367 |
| NCI-H647 | 0.472 | 0.371 | 0.382 | 0.471 | 0.287 | 0.631 | 0.621 | 0.84 | 0.686 | 0.501 | 0.852 | 0.365 | 0.227 | 0.198 | 0.874 | 0.819 | 1.04 | 0.934 | 0.871 |
| A-427 | 0.536 | 0.532 | 0.523 | 0.564 | 0.503 | 0.335 | 0.308 | 0.44 | 0.29 | 0.305 |  | 0.243 | 0.179 | 0.214 | 0.98 | 1.11 | 1.02 | 0.968 | 0.954 |
| HCC-366 | 0.274 | 0.447 | 0.416 | 0.396 | 0.264 | 0.616 | 0.676 | 0.652 | 0.582 | 0.453 | 0.274 | 0.132 | 0.0524 | 0.0502 | 1.07 | 1 | 0.96 | 1.18 | 1.05 |
| CAL-12T | 0.413 | 0.474 | 0.365 | 0.457 | 0.391 | 0.645 | 0.65 | 0.616 | 0.596 | 0.589 | 0.728 | 0.766 | 0.374 | 0.326 | 0.935 | 0.946 | 0.876 | 1.16 | 1.01 |
